# Literature values in patent US20070092567A1 (GALEPHAR M/F, priority 2001, published 2007).
# Entries after “also recorded” stand apart in the source; their conditions may differ.
# Legend:
# [1] = molecular target: cytochrome P450 2C9 isoenzyme (Homo sapiens, UniProt P11712)
# cytochrome P450 3A4 = cytochrome P450 3A4 (Homo sapiens, UniProt P08684)
# [2] = not given; remark: listed apart in the source
# Chain of cytochrome P450 3A4 (P08684 whole entry): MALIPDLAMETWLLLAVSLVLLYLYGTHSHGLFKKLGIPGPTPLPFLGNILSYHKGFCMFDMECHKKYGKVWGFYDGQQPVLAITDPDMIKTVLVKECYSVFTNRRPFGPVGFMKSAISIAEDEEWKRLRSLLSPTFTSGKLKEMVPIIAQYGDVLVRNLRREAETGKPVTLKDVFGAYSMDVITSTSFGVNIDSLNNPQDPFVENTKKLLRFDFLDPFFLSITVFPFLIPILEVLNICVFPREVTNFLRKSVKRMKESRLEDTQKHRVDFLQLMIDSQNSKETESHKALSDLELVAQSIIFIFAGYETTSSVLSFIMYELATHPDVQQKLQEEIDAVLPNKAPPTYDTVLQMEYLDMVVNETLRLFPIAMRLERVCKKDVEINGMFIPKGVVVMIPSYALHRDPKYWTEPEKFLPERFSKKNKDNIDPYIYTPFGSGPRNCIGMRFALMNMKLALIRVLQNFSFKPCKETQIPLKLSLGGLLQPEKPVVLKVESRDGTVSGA
# Chain of cytochrome P450 2C9 isoenzyme (P11712 whole entry): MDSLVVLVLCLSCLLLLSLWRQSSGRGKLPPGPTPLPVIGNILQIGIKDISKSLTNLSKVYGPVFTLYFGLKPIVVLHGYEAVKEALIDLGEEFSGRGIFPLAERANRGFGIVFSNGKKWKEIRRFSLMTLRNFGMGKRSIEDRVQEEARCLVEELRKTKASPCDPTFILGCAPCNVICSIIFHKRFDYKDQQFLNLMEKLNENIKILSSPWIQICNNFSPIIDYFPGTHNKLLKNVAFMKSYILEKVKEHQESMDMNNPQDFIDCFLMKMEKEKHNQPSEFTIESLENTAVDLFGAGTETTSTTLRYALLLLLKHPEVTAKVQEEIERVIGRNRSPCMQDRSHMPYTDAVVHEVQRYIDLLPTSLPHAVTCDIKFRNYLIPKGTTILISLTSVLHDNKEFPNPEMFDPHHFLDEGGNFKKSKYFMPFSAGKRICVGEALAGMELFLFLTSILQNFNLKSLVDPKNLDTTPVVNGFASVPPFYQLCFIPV
compound,measurement,setting,value
"CC(C)OC(=O)C(C)(C)Oc1ccc(C(=O)c2ccc(Cl)cc2)cc1 [Fenofibrate, p-(4-chlorobenzoyl)-phenoxy isobutyrate isopropyl ester]",metabolisation by cytochrome P450 2C9 isoenzyme,[1],only weakly metabolised
same,metabolisation by cytochrome P450 3A4,cytochrome P450 3A4,not metabolised by cytochrome P450 3A4
CC(C)(Oc1ccc(C(=O)c2ccc(Cl)cc2)cc1)C(=O)O [fenofibric acid],mean plasma half-life,"healthy, fasting young adults",19.6 to 26.6 h
same,eliminated in the urine as fenofibric acid ester glucuronide,in vivo,60-88%
same,Peak plasma levels,single oral dose of 300 mg fenofibrate,6 to 9.5 mg/L
CC[C@H](C)C(=O)O[C@H]1C[C@H](O)C=C2C=C[C@H](C)[C@H](CC[C@@H](O)C[C@@H](O)CC(=O)O)[C@H]21 [pravastatin],average oral absorption,[2]; based on urinary recovery of radiolabeled drug,34%
same,decrease of systemic bioavailability following a bedtime dose compared to morning administration,"[2]; human, in vivo",60%
same,metabolisation through the cytochrome P450 system,cytochrome P450 system,not metabolised through the cytochrome P450 system; also recorded: does not involve the cytochrome P450 system
